Measurements from the NIST ThermoML archive (doi:10.1016/j.jct.2017.03.033).

Experiment: molar heat capacity at constant pressure
Conditions: Flow calorimetry

CC(C)C [2-methylpropane]
Conditions	molar heat capacity at constant pressure [J/K/mol]
353.87 K, 10990 kPa, Liquid	150.71
353.87 K, 11500 kPa, Liquid	150.42
353.88 K, 2000 kPa, Liquid	166.17
353.88 K, 3510 kPa, Liquid	160.94
353.88 K, 7510 kPa, Liquid	153.15
353.88 K, 12010 kPa, Liquid	149.9
353.89 K, 5510 kPa, Liquid	157.05
353.89 K, 6510 kPa, Liquid	155.42
353.9 K, 1540 kPa, Liquid	168.38
353.9 K, 4000 kPa, Liquid	160.01
353.9 K, 7990 kPa, Liquid	152.75
363.86 K, 2090 kPa, Liquid	174.19
363.91 K, 2520 kPa, Liquid	171.93
363.92 K, 5030 kPa, Liquid	162.8
363.92 K, 6510 kPa, Liquid	159.43
363.92 K, 8020 kPa, Liquid	156.81
363.93 K, 3000 kPa, Liquid	170.01
363.93 K, 7000 kPa, Liquid	158.5
363.94 K, 5510 kPa, Liquid	161.75
363.94 K, 8500 kPa, Liquid	156.12
363.95 K, 11990 kPa, Liquid	152.05
363.96 K, 4040 kPa, Liquid	165.71
363.96 K, 6000 kPa, Liquid	160.88
363.96 K, 7510 kPa, Liquid	157.92
363.96 K, 9970 kPa, Liquid	153.91
363.96 K, 10510 kPa, Liquid	153.09
363.97 K, 3510 kPa, Liquid	167.22
363.97 K, 8990 kPa, Liquid	155.13
363.97 K, 11000 kPa, Liquid	152.75
363.98 K, 4500 kPa, Liquid	164.66
363.98 K, 9510 kPa, Liquid	154.2
364 K, 11540 kPa, Liquid	152.34
373.85 K, 2530 kPa, Liquid	186.46
373.85 K, 7050 kPa, Liquid	164.54
373.87 K, 7520 kPa, Liquid	163.73
373.89 K, 7980 kPa, Liquid	162.86
373.89 K, 9480 kPa, Liquid	160.48
373.9 K, 5520 kPa, Liquid	169.02
373.9 K, 6000 kPa, Liquid	167.45
373.9 K, 10000 kPa, Liquid	159.78
373.91 K, 9020 kPa, Liquid	161.23
373.92 K, 3010 kPa, Liquid	182.39
373.92 K, 4500 kPa, Liquid	172.97
373.92 K, 8520 kPa, Liquid	162.1
373.93 K, 4020 kPa, Liquid	175.3
373.94 K, 6520 kPa, Liquid	166.64
373.95 K, 5020 kPa, Liquid	171.34
373.95 K, 11010 kPa, Liquid	158.15
373.95 K, 11470 kPa, Liquid	157.45
373.95 K, 11990 kPa, Liquid	157.1
373.97 K, 3530 kPa, Liquid	179.02
373.98 K, 10490 kPa, Liquid	158.44
383.2 K, 2550 kPa, Liquid	209.82
383.21 K, 6010 kPa, Liquid	173.96
383.26 K, 6520 kPa, Liquid	171.81
383.3 K, 3960 kPa, Liquid	188.32
383.32 K, 4990 kPa, Liquid	179.89
383.34 K, 4500 kPa, Liquid	183.72
383.35 K, 3010 kPa, Liquid	201.04
383.42 K, 3490 kPa, Liquid	193.84
383.44 K, 5490 kPa, Liquid	177.21
383.92 K, 6990 kPa, Liquid	170.65
383.92 K, 9990 kPa, Liquid	163.61
383.93 K, 10490 kPa, Liquid	161.7
383.93 K, 12090 kPa, Liquid	159.14
383.94 K, 7980 kPa, Liquid	168.55
383.94 K, 9460 kPa, Liquid	164.25
383.94 K, 11010 kPa, Liquid	160.71
383.94 K, 11570 kPa, Liquid	159.37
383.95 K, 9030 kPa, Liquid	164.95
383.96 K, 7520 kPa, Liquid	169.54
383.97 K, 8470 kPa, Liquid	166.75
393.93 K, 4520 kPa, Liquid	197.56
393.95 K, 3560 kPa, Liquid	222.96
393.96 K, 3090 kPa, Liquid	248.47
393.99 K, 4980 kPa, Liquid	192.79
393.99 K, 7000 kPa, Liquid	177.62
393.99 K, 9000 kPa, Liquid	170.47
394 K, 8010 kPa, Liquid	174.6
394 K, 9500 kPa, Liquid	169.6
394.01 K, 7500 kPa, Liquid	176.28
394.02 K, 6000 kPa, Liquid	183.49
394.02 K, 12020 kPa, Liquid	165.3
394.03 K, 8510 kPa, Liquid	173.38
394.03 K, 11010 kPa, Liquid	166.75
394.04 K, 4060 kPa, Liquid	208.37
394.05 K, 6500 kPa, Liquid	180.59
394.05 K, 9990 kPa, Liquid	168.03
394.05 K, 11510 kPa, Liquid	165.53
394.06 K, 5490 kPa, Liquid	187.33
394.09 K, 10520 kPa, Liquid	167.28
403.41 K, 4080 kPa, Liquid	248.65
403.41 K, 4510 kPa, Liquid	227.2
403.43 K, 5070 kPa, Liquid	209.76
403.44 K, 5520 kPa, Liquid	201.92
403.49 K, 9990 kPa, Liquid	173.15
403.5 K, 8500 kPa, Liquid	177.97
403.51 K, 6500 kPa, Liquid	192.5
403.51 K, 8000 kPa, Liquid	180.88
403.52 K, 6010 kPa, Liquid	195.93
403.53 K, 6990 kPa, Liquid	189.01
403.53 K, 8990 kPa, Liquid	175.94
403.53 K, 10960 kPa, Liquid	172.8
403.53 K, 12000 kPa, Liquid	170.65
403.54 K, 10490 kPa, Liquid	172.91
403.55 K, 9510 kPa, Liquid	174.54
403.55 K, 11490 kPa, Liquid	172.16
403.58 K, 7550 kPa, Liquid	184.77
413.26 K, 4120 kPa, Fluid (supercritical or subcritical phases)	593.02
413.46 K, 4510 kPa, Fluid (supercritical or subcritical phases)	315.55
413.47 K, 5490 kPa, Fluid (supercritical or subcritical phases)	230.16
413.48 K, 6060 kPa, Fluid (supercritical or subcritical phases)	211.86
413.5 K, 4980 kPa, Fluid (supercritical or subcritical phases)	256.44
413.51 K, 6500 kPa, Fluid (supercritical or subcritical phases)	205.29
413.51 K, 7000 kPa, Fluid (supercritical or subcritical phases)	197.5
413.52 K, 11000 kPa, Fluid (supercritical or subcritical phases)	171.93
413.53 K, 7980 kPa, Fluid (supercritical or subcritical phases)	188.9
413.53 K, 8490 kPa, Fluid (supercritical or subcritical phases)	186.05
413.53 K, 10480 kPa, Fluid (supercritical or subcritical phases)	174.77
413.54 K, 7520 kPa, Fluid (supercritical or subcritical phases)	191.28
413.54 K, 10010 kPa, Fluid (supercritical or subcritical phases)	176.92
413.54 K, 11510 kPa, Fluid (supercritical or subcritical phases)	170.01
413.54 K, 11940 kPa, Fluid (supercritical or subcritical phases)	169.43
413.55 K, 8990 kPa, Fluid (supercritical or subcritical phases)	180.93
413.56 K, 9510 kPa, Fluid (supercritical or subcritical phases)	178.9
